Laboratory results taken from ChEMBL document CHEMBL2390942, “Novel 3,5-bis(arylidene)-4-piperidone dimers: potent cytotoxins against colon cancer cells” (Eur J Med Chem, 2013).
The source made the active and inactive calls. No cut-off for these calls is given here.

Columns and labels:
[1] = tested on: HCT-116; test: Cytotoxicity against human HCT116 cells after 48 hrs by sulforhodamine B assay; format: functional, cell-based; details: HCT-116, 48 h
[2] = tested on: HCT-116; test: Ratio of 5-fluorouracil IC50 to compound IC50 for human HCT116 cells after 48 hrs by sulforhodamine B assay; format: functional
[3] = tested on: HT-29; test: Cytotoxicity against human HT-29 cells after 48 hrs by sulforhodamine B assay; format: functional, cell-based; details: HT-29, 48 h
[4] = tested on: HT-29; test: Ratio of 5-fluorouracil IC50 to compound IC50 for human HT-29 cells after 48 hrs by sulforhodamine B assay; format: functional
[5] = tested on: HCT-116; test: Cell cycle arrest in human HCT116 cells assessed as accumulation at G2/M phase at 1 uM after 48 hrs by propidium iodide staining-based FACS flow cytometric analysis; format: functional
[6] = tested on: HCT-116; test: Induction of apoptosis in human HCT116 cells assessed as apoptotic cells at 1 uM after 24 hrs by Annexin V-FITC and propidium iodide staining-based FACS flow cytometric analysis (reference value: 2.82%); format: functional
[7] = tested on: HCT-116; test: Induction of apoptosis in human HCT116 cells assessed as live cells at 1 uM after 24 hrs by Annexin V-FITC and propidium iodide staining-based FACS flow cytometric analysis (reference value: 59.15%); format: functional
[8] = tested on: HCT-116; test: Induction of apoptosis in human HCT116 cells assessed as live cells at 1 uM after 48 hrs by Annexin V-FITC and propidium iodide staining-based FACS flow cytometric analysis (reference value: 47.40%); format: functional
[9] = tested on: HT-29; test: Cell cycle arrest in human HT-29 cells assessed as accumulation at G2/M phase at 1 uM after 48 hrs by propidium iodide staining-based FACS flow cytometric analysis; format: functional
[10] = tested on: HT-29; test: Cell cycle arrest in human HT-29 cells assessed as accumulation at S phase at 1 uM after 48 hrs by propidium iodide staining-based FACS flow cytometric analysis; format: functional
[11] = tested on: HCT-116; test: Induction of apoptosis in human HCT116 cells assessed as dead cells at 1 uM after 24 hrs by Annexin V-FITC and propidium iodide staining-based FACS flow cytometric analysis (reference value: 38.02%); format: functional
[12] = tested on: HCT-116; test: Cell cycle arrest in human HCT116 cells assessed as accumulation at S phase at 1 uM after 48 hrs by propidium iodide staining-based FACS flow cytometric analysis; format: functional
[13] = tested on: HCT-116; test: Induction of apoptosis in human HCT116 cells assessed as dead cells at 1 uM after 48 hrs by Annexin V-FITC and propidium iodide staining-based FACS flow cytometric analysis (reference value: 49.93%); format: functional
[14] = tested on: HCT-116; test: Induction of apoptosis in human HCT116 cells assessed as apoptotic cells at 1 uM after 48 hrs by Annexin V-FITC and propidium iodide staining-based FACS flow cytometric analysis (reference value: 2.59%); format: functional
[15] = tested on: Mus musculus; test: Reduction in hepatic glutathione levels in ip dosed mouse relative to control; format: functional; set-up: scale not given: the % may be the effect or the level left

Row | Structure (SMILES) | IC50 [1] | Ratio IC50 [2] | IC50 [3] | Ratio IC50 [4] | also measured
1 | Cc1ccc(/C=C2\CN(C(=O)C(=O)N3C/C(=C\c4ccc(C)cc4)C(=O)/C(=C/c4ccc(C)cc4)C3)C/C(=C\c3ccc(C)cc3)C2=O)cc1 | 90 nM | 50 | 129 nM | 49 | –
2 | O=C1/C(=C\c2ccccc2)CN(C(=O)CC(=O)N2C/C(=C\c3ccccc3)C(=O)/C(=C/c3ccccc3)C2)C/C1=C\c1ccccc1 | 20 nM | 226 | 3 nM | 2117 | –
3 | CN(C)c1ccc(/C=C2\CN(C(=O)C(=O)N3C/C(=C\c4ccc(N(C)C)cc4)C(=O)/C(=C/c4ccc(N(C)C)cc4)C3)C/C(=C\c3ccc(N(C)C)cc3)C2=O)cc1 | 27400 nM | 0.17 | 18600 nM | 0.34 | –
4 | Cc1ccc(/C=C2/CN(C(=O)CC(=O)N3C/C(=C\c4ccc(C)cc4)C(=O)/C(=C/c4ccc(C)cc4)C3)C/C(=C\c3ccc(C)cc3)C2=O)cc1 | 410 nM | 11 | 200 nM | 32 | –
5 | COc1ccc(/C=C2\CN(C(=O)C(=O)N3C/C(=C\c4ccc(OC)c(OC)c4)C(=O)/C(=C/c4ccc(OC)c(OC)c4)C3)C/C(=C\c3ccc(OC)c(OC)c3)C2=O)cc1OC | 30 nM | 151 | 568 nM | 11 | –
6 | COc1ccc(/C=C2/CN(C(=O)CC(=O)N3C/C(=C\c4ccc(OC)cc4)C(=O)/C(=C/c4ccc(OC)cc4)C3)C/C(=C\c3ccc(OC)cc3)C2=O)cc1 | 60 nM | 75 | 770 nM | 8 | –
7 | COc1ccc(/C=C2\CN(C(=O)C(=O)N3C/C(=C\c4ccc(OC)cc4)C(=O)/C(=C/c4ccc(OC)cc4)C3)C/C(=C\c3ccc(OC)cc3)C2=O)cc1 | 20 nM | 226 | 170 nM | 37 | Activity [5]: inactive; Activity [6]: 34.93%; Activity [7]: 44.4%; Activity [8]: 24.47%; Activity [9]: inactive; Activity [10]: inactive; Activity [11]: 21.63%; Activity [12]: inactive; Activity [13]: 37.82%; Activity [14]: 38.51%
8 | O=C1/C(=C\c2ccc(F)cc2)CN(C(=O)CC(=O)N2C/C(=C\c3ccc(F)cc3)C(=O)/C(=C/c3ccc(F)cc3)C2)C/C1=C\c1ccc(F)cc1 | 600 nM | 8 | 180 nM | 35 | –
9 | O=C1/C(=C/c2ccccc2)CN(C(=O)C(=O)N2C/C(=C\c3ccccc3)C(=O)/C(=C/c3ccccc3)C2)C/C1=C\c1ccccc1 | 40 nM | 113 | 14 nM | 454 | –
10 | O=C1/C(=C\c2ccc(Cl)c(Cl)c2)CN(C(=O)CC(=O)N2C/C(=C\c3ccc(Cl)c(Cl)c3)C(=O)/C(=C/c3ccc(Cl)c(Cl)c3)C2)C/C1=C\c1ccc(Cl)c(Cl)c1 | 26700 nM | 0.17 | 6050 nM | 1.1 | –
11 | COc1cc(/C=C2/CN(C(=O)CC(=O)N3C/C(=C\c4cc(OC)c(OC)c(OC)c4)C(=O)/C(=C/c4cc(OC)c(OC)c(OC)c4)C3)C/C(=C\c3cc(OC)c(OC)c(OC)c3)C2=O)cc(OC)c1OC | 20 nM | 226 | 40 nM | 159 | –
12 | COc1ccc(/C=C2/CN(C(=O)CC(=O)N3C/C(=C\c4ccc(OC)c(OC)c4)C(=O)/C(=C/c4ccc(OC)c(OC)c4)C3)C/C(=C\c3ccc(OC)c(OC)c3)C2=O)cc1OC | 180 nM | 25 | 310 nM | 20 | –
13 | O=C1/C(=C/c2ccccc2)CNC/C1=C\c1ccccc1 | – | – | – | – | Activity [15]: 19%
14 | O=c1[nH]cc(F)c(=O)[nH]1 [FLUOROURACIL] | 4520 nM | 1 | 6350 nM | 1 | –
15 | O=C1/C(=C\c2ccc(Cl)cc2)CN(C(=O)CC(=O)N2C/C(=C\c3ccc(Cl)cc3)C(=O)/C(=C/c3ccc(Cl)cc3)C2)C/C1=C\c1ccc(Cl)cc1 | 50 nM | 90 | 90 nM | 71 | –
16 | COc1cc(/C=C/C(=O)CC(=O)/C=C/c2ccc(O)c(OC)c2)ccc1O [CURCUMIN] | 11500 nM | 0.39 | 13200 nM | 0.48 | –
17 | COc1cc(/C=C2\CN(C(=O)C(=O)N3C/C(=C\c4cc(OC)c(OC)c(OC)c4)C(=O)/C(=C/c4ccc(OC)c(OC)c4OC)C3)C/C(=C\c3cc(OC)c(OC)c(OC)c3)C2=O)cc(OC)c1OC | 270 nM | 17 | 270 nM | 24 | –
18 | O=C1/C(=C\c2ccccc2)CN(CCCN2C/C(=C\c3ccccc3)C(=O)/C(=C/c3ccccc3)C2)C/C1=C\c1ccccc1 | 680 nM | 7 | 2150 nM | 3 | –
19 | O=C1/C(=C/c2ccc(F)cc2)CN(C(=O)C(=O)N2C/C(=C\c3ccc(F)cc3)C(=O)/C(=C/c3ccc(F)cc3)C2)C/C1=C\c1ccc(F)cc1 | 20 nM | 226 | 30 nM | 212 | –
20 | O=C1/C(=C/c2ccc(Cl)cc2)CN(C(=O)C(=O)N2C/C(=C\c3ccc(Cl)cc3)C(=O)/C(=C/c3ccc(Cl)cc3)C2)C/C1=C\c1ccc(Cl)cc1 | 30 nM | 151 | 780 nM | 8 | –
21 | O=C1/C(=C\c2ccc(O)cc2)CN(C(=O)CC(=O)N2C/C(=C\c3ccc(O)cc3)C(=O)/C(=C/c3ccc(O)cc3)C2)C/C1=C\c1ccc(O)cc1 | 720 nM | 6 | 460 nM | 14 | –
22 | CN(C)c1ccc(/C=C2/CN(C(=O)CC(=O)N3C/C(=C\c4ccc(N(C)C)cc4)C(=O)/C(=C/c4ccc(N(C)C)cc4)C3)C/C(=C\c3ccc(N(C)C)cc3)C2=O)cc1 | > 25000 nM | <1 | > 25000 nM | <1 | –
23 | O=C(O)/C=C/C(=O)N1C/C(=C\c2ccccc2)C(=O)/C(=C/c2ccccc2)C1 | – | – | – | – | Activity [15]: 29%
